The results in this text go back to publication PMC10706865, “Repurposing Study of 4-Acyl-1-phenylaminocarbonyl-2-substituted-piperazine Derivatives as Potential Anticancer Agents—In Vitro Evaluation against Breast Cancer Cells” (International Journal of Molecular Sciences, 2023).

For assay [1], the system named is MCF7 human breast cancer cells. Nature of the assay: MTT cell viability assay, MCF7 breast cancer cells. It counts as cell-based. The conditions noted are these: for IC50: MTT assay; for Selectivity Index: IC50 MCF 10A divided by IC50 MCF7, 72 h, MTT. The procedure:
(§1) To evaluate the cytotoxicity of our compounds against cancer cells, they were evaluated in vitro against MCF7 human breast cancer cells. To examine the selectivity of our compounds, they were also studied against MCF 10A human normal cells. Both cell lines were exposed to different concentrations of our compounds for 72 h before measuring cell viability with the 3-(4,5-dimethylthiazol-2-yl)-2,5-diphenyltetrazolium bromide (MTT) assay (for conditions of the MTT assay, see the Experimental Part, Section 3). Docetaxel, an anticancer drug used in clinics, was tested under the same experimental conditions. Data were obtained from at least two independent experiments and were expressed as means ± standard error of means (SEM). The half-maximal inhibitory concentration (IC50) value of each compound was calculated, and the results are collected in Table 2. To evaluate the selective activity of our compounds, the selectivity index (SI) was also calculated. The curves of cell viability of MCF7 cancer cells and MCF 10A normal cells after the treatment with our compounds are shown (Figure 5, Figure 6, Figure 7, Figure 8 and Figure 9 and Figures S1–S4).
(§2) Exponentially growing cells were seeded into 96-well plates, and drugs were added 24 h later. Each compound was dissolved with DMSO (Panreac Applichem) to prepare a stock solution (100 mM). The working solutions of specific concentrations were prepared via the dilution of the stock solutions in the culture medium and were immediately used to treat the cells. The remaining stock solutions were aliquoted and frozen at −40 °C. We used different aliquots in each independent experiment to avoid the freeze–thaw cycles. Cells were exposed to the drugs for 72 h. After these 72 h, cell viability was determined with the MTT assay or the resazurin assay. These assays are colorimetric techniques that are widely used to determine cell viability.
(§3) The MTT assay is based on the capability of viable cells to transform the MTT salt into a purple formazan dye. After an incubation period of the cells with the MTT and a solubilization step, the quantity of the colored product is measured with a plate reading spectrophotometer. […] The quantity of formazan produced is presumably proportional to the number of viable cells. After seeding for 24 h, cells were treated with the tested drugs for 72 h. Then, medium was removed, and 125 μL of MTT (1 mg/mL in medium) was added to each well for 3–4 h. Subsequently, 80 μL of 20% sodium dodecyl sulfate (Panreac Applichem) in 20 mM hydrochloric acid (Panreac Applichem) was added to dissolve the insoluble purple formazan product, plates were incubated for 10 h at 37 °C, and optical densities were measured at 540 nm on a multiwell plate spectrophotometer reader.
(§4) In both assays, cell viability was expressed as percentage in relation to controls. All data were averaged from at least two independent experiments and were expressed as mean ± standard error of the mean (SEM). Selectivity indices (SI) were calculated by dividing the IC50 values in the nonmalignant cells by those in the cancer cells.

The test system of assay [2] is MCF 10A human normal breast cells. In words: MTT cell viability assay, MCF 10A normal breast cells. The class given is cell-based. The procedure: as §1, §2, §3, §4
Where [3] appears, read: Homo sapiens, MCF7, 72 h, 72 h exposure, read-out: IC50 (Mean ± SEM; μM) MCF7 (Cancer).
The mark [4] stands for this setting: 72 h exposure, read-out: IC50 (Mean ± SEM; μM) MCF 10A (Normal).
The mark [5] stands for this setting: 72 h exposure, read-out: IC50 (Mean ± SEM; μM) MCF7 (Cancer).

Where “and” joins values, the source holds several entries; their conditions need not be identical. Equal values may be shown once. Read-outs that look alike come from different tables or passages of the source.

For the molecule `CC1CN(C(=O)OC(C)(C)C)CCN1C(=O)Nc1ccc(Cl)cc1` (stereo not drawn) [Compound 15], the half-inhibitory concentration (IC50) is 43.4 ± 3.7 µM in assay [1] (setting [3]) and 170 ± 61.6 µM in assay [2] (setting [4]). In addition, in assay [1], the “Selectivity Index” value is 3.8 ± 1.1.
For the molecule `CC(C)(C)OC(=O)N1CCN(C(=O)Nc2ccc([N+](=O)[O-])cc2)C(c2ccccc2)C1` (stereo not drawn) [Compound 26], in assay [1], the “Selectivity Index” value is listed as 15.2 ± 11.1. The 50% inhibitory concentration (IC50) in assay [2] (setting [4]) amounted to 71.3 ± 3.6 µM.
In the case of `CC1CN(C(=O)C(C)(C)C)CCN1C(=S)Nc1ccc([N+](=O)[O-])cc1` (stereo not drawn) [Compound 9], the half-inhibitory concentration (IC50) is 15.8 ± 8.2 µM in assay [1] (setting [5]), less than 20 µM in assay [1] (setting [3]) and 58.2 ± 18.3 µM in assay [2] (setting [4]). The “Selectivity Index” value in assay [1] is 4.2 ± 1.0.
Turning to `O=C(c1cc2ccccc2o1)N1CCN(C(=O)Nc2ccccc2[N+](=O)[O-])C(c2ccccc2)C1` (stereo not drawn) [Compound 39], the values for the IC50 in assay [1] (setting [3]) and in assay [2] (setting [4]) were 226 ± 175 µM and greater than 1000 µM, respectively. Besides, the “Selectivity Index” value in assay [1] is on record as greater than 2.5.
The like results for `CC1CN(C(=O)c2cc3ccccc3o2)CCN1C(=O)Nc1ccccc1` (stereo not drawn) [Compound 25] were, in that order, 48.5 ± 10.1 µM, 161 ± 64.6 µM and 3.2 ± 0.7.
As for `CC1CN(C(=O)c2cc3ccccc3o2)CCN1C(=O)Nc1ccc([N+](=O)[O-])cc1` (stereo not drawn) [Compound 18], the IC50 in assay [1] (setting [5]) was 12.1 ± 0.6 µM; in assay [1] (setting [3]), less than 20 µM; in assay [2] (setting [4]) it was 30.4 ± 1.8 µM. Further, the “Selectivity Index” value in assay [1] was found to be 2.5 ± 0.2.
`CC1CN(C(=O)OC(C)(C)C)CCN1C(=O)Nc1ccc(C(F)(F)F)cc1` (stereo not drawn) [Compound 16]: the half-maximal inhibitory concentration (IC50) in assay [1] (setting [3]) was 31.3 ± 3.6 µM; in assay [2] (setting [4]), 60.1 ± 19.8 µM. For the same molecule, the “Selectivity Index” value in assay [1] is 1.9 ± 0.4.
Regarding `CC(=O)O[C@@]12CO[C@@H]1C[C@H](O)[C@@]1(C)C(=O)[C@H](O)C3=C(C)[C@@H](OC(=O)[C@H](O)[C@@H](NC(=O)OC(C)(C)C)c4ccccc4)C[C@@](O)([C@@H](OC(=O)c4ccccc4)[C@H]21)C3(C)C` [Docetaxel, reference compound], the half-inhibitory concentration (IC50) in assay [1] (Homo sapiens, MCF7, 72 h, docetaxel line in nM, 72 h, read-out: IC50 (Mean ± SEM) MCF7 (Cancer)) was 0.0761 ± 0.0262 µM; in assay [2] (docetaxel line in nM, 72 h, read-out: IC50 (Mean ± SEM) MCF 10A (Normal)) it was less than 0.001 µM. Further, in assay [1], the “Selectivity Index” value is listed as “˂1”.
Turning to `O=C(c1cc2ccccc2o1)N1CCN(C(=O)Nc2cc(C(F)(F)F)ccc2Cl)C(c2ccccc2)C1` (stereo not drawn) [Compound 38], the IC50 in assay [1] (setting [3]) was found to be 91.9 ± 35.7 µM; in assay [2] (setting [4]), 117 ± 21.1 µM. Besides, the “Selectivity Index” value in assay [1] is reported as 1.4 ± 0.3.
The like results for `O=C(c1cc2ccccc2o1)N1CCN(C(=O)Nc2ccc(Cl)cc2)C(c2ccccc2)C1` (stereo not drawn) [Compound 36] were, in that order, 41.3 ± 4.2 µM, 161 ± 16.5 µM and 4.0 ± 0.9.
The like results for `COc1ccccc1NC(=O)N1CCN(C(=O)c2cc3ccccc3o2)CC1C` (stereo not drawn) [Compound 23] were, in that order, 31.4 ± 5.5 µM, 74.7 ± 30.2 µM and 2.3 ± 0.6.
As to `CC1CN(C(=O)c2cc3ccccc3o2)CCN1C(=O)Nc1ccc(Cl)cc1` (stereo not drawn) [Compound 19], the half-inhibitory concentration (IC50) in assay [1] (setting [3]) is 30.5 ± 1.1 µM; in assay [2] (setting [4]) it was 261 ± 2.6 µM.
The like results for `CC1CN(C(=O)c2cc3ccccc3o2)CCN1C(=O)Nc1ccc(C(F)(F)F)cc1` (stereo not drawn) [Compound 20] were, in that order, 31.7 ± 4.1 µM and 244 ± 8.2 µM.
For the molecule `CC1CN(C(=O)C(C)(C)C)CCN1C(=O)Nc1ccc([N+](=O)[O-])cc1` (stereo not drawn) [Compound 7], the figures for the concentration for half-maximal inhibition (IC50) in assay [1] (setting [3]) and in assay [2] (setting [4]) were 60.8 ± 1.2 µM and 38.5 ± 4.6 µM, respectively. For the same molecule, the “Selectivity Index” value in assay [1] worked out at 0.6 ± 0.1.
Turning to `CC(C)(C)OC(=O)N1CCN(C(=O)Nc2ccc(Cl)cc2)C(c2ccccc2)C1` (stereo not drawn) [Compound 27], the results for the IC50 in assay [1] (setting [5]), in assay [1] (setting [3]) and in assay [2] (setting [4]) were 16.8 ± 4 µM, less than 20 µM and 33.8 ± 6 µM, respectively. Besides, the “Selectivity Index” value in assay [1] amounted to 2.2 ± 0.9.
Turning to `CC1CN(C(=O)OC(C)(C)C)CCN1C(=O)Nc1ccc(C(F)(F)F)c(Cl)c1` (stereo not drawn) [Compound 17], the 50% inhibitory concentration (IC50) in assay [1] (setting [3]) was determined as 22.7 ± 1.6 µM; in assay [2] (setting [4]), 41.7 ± 4.1 µM. The “Selectivity Index” value in assay [1] is listed as 1.9 ± 0.2.
The like results for `CC1CN(C(=O)OC(C)(C)C)CCN1C(=O)Nc1ccc([N+](=O)[O-])cc1` (stereo not drawn) [Compound 12] were, in that order, 34.6 ± 4.8 µM, 84.2 ± 12.4 µM and 2.4 ± 0.0.
The like results for `CC(C)(C)OC(=O)N1CCN(C(=O)Nc2ccc(F)cc2)C(c2ccccc2)C1` (stereo not drawn) [Compound 29] were, in that order, 24.8 ± 1.7 µM, 56.3 ± 16.5 µM and 2.2 ± 0.5.
As for `Cc1ccc(NC(=O)N2CCN(C(=O)OC(C)(C)C)CC2c2ccccc2)cc1` (stereo not drawn) [Compound 34], the values for the half-maximal inhibitory concentration (IC50) in assay [1] (setting [3]) and in assay [2] (setting [4]) were 24.4 ± 3.1 µM and 68.7 ± 2.8 µM, respectively. Besides, the “Selectivity Index” value in assay [1] is 2.9 ± 0.5.
With `CC(C)(C)OC(=O)N1CCN(C(=O)Nc2ccc(C#N)cc2)C(c2ccccc2)C1` (stereo not drawn) [Compound 28], the IC50 in assay [1] (setting [5]) was 19.5 ± 3.5 µM; in assay [1] (setting [3]), less than 20 µM; in assay [2] (setting [4]) it was 55.2 ± 24.4 µM. In addition, the “Selectivity Index” value in assay [1] worked out at 2.7 ± 0.8.
`CC1CN(C(=O)c2cc3ccccc3o2)CCN1C(=O)Nc1ccccc1[N+](=O)[O-]` (stereo not drawn) [Compound 22]: the IC50 is 28.1 ± 1.2 µM in assay [1] (setting [3]) and 32.4 ± 1.9 µM in assay [2] (setting [4]). The “Selectivity Index” value in assay [1] is 1.2 ± 0.1.
The like results for `COc1ccc(NC(=O)N2CCN(C(=O)c3ccccc3)CC2C)cc1` (stereo not drawn) [Compound 11] were, in that order, 359 ± 74.7 µM, 478 ± 35.6 µM and 1.4 ± 0.4.
The like results for `COc1ccc(NC(=O)N2CCN(C(=O)C(C)(C)C)CC2C)cc1` (stereo not drawn) [Compound 8] were, in that order, 118 ± 48.7 µM, 541 ± 259 µM and 5.2 ± 3.1.
Regarding `COc1ccc(NC(=O)N2CCN(C(=O)OC(C)(C)C)CC2c2ccccc2)cc1` (stereo not drawn) [Compound 33], the 50% inhibitory concentration (IC50) worked out at 130 ± 31.4 µM in assay [1] (setting [3]) and 325 ± 27.6 µM in assay [2] (setting [4]). In addition, the “Selectivity Index” value in assay [1] is recorded as 2.6 ± 0.4.
Consider `CC1CN(C(=O)c2cc3ccccc3o2)CCN1C(=O)Nc1ccccc1Br` (stereo not drawn) [Compound 24], for which the values for the IC50 in assay [1] (setting [3]) and in assay [2] (setting [4]) were 25.3 ± 1.6 µM and 33.5 ± 3.5 µM, respectively. Besides, the “Selectivity Index” value in assay [1] was 1.3 ± 0.1.
The like results for `CC(C)(C)OC(=O)N1CCN(C(=O)Nc2ccccc2[N+](=O)[O-])C(c2ccccc2)C1` (stereo not drawn) [Compound 30] were, in that order, 24.3 ± 3.4 µM, 63.2 ± 10.9 µM and 2.6 ± 0.1.
On to `CC1CN(C(=O)OC(C)(C)C)CCN1C(=S)Nc1ccc([N+](=O)[O-])cc1` (stereo not drawn) [Compound 14], for which the IC50 turned out to be 34.2 ± 0.1 µM in assay [1] (setting [3]) and 35.6 ± 4.5 µM in assay [2] (setting [4]). In addition, the “Selectivity Index” value in assay [1] stood at 1.0 ± 0.1.
The like results for `CC1CN(C(=O)c2ccccc2)CCN1C(=O)Nc1ccc([N+](=O)[O-])cc1` (stereo not drawn) [Compound 10] were, in that order, 26.7 ± 3.3 µM, 34.1 ± 1.7 µM and 1.3 ± 0.1.
`CC1CN(C(=O)c2cc3ccccc3o2)CCN1C(=O)NC12CC3CC(CC(C3)C1)C2` (stereo not drawn) [Compound 41, 4-(Benzofuran-2-carbonyl)-2-methyl-1-[(1-adamantyl)aminocarbonyl]piperazine]: the IC50 is less than 20 µM in assay [1] (setting [5]), 17.7 ± 5 µM in assay [1] (setting [3]) and 103 ± 66.9 µM in assay [2] (setting [4]). Moreover, in assay [1], the “Selectivity Index” value was 5.1 ± 2.3 and ~ 5.
Turning to `CC1CN(C(=O)c2cc3ccccc3o2)CCN1C(=O)Nc1ccc(C#N)cc1` (stereo not drawn) [Compound 21], the IC50 in assay [1] (setting [5]) is 19.4 ± 3.8 µM; in assay [1] (setting [3]), less than 20 µM; in assay [2] (setting [4]), 31.2 ± 2.8 µM. Also, the “Selectivity Index” value in assay [1] is 1.6 ± 0.2.
As for `COc1ccc(NC(=O)N2CCN(C(=O)OC(C)(C)C)CC2C)cc1` (stereo not drawn) [Compound 13], the IC50 in assay [1] (setting [3]) amounted to 250 ± 19.4 µM; in assay [2] (setting [4]), 915 ± 226 µM. The “Selectivity Index” value in assay [1] came to 3.6 ± 0.6.
